Experimental data published in patent publication US8575158B2, “1-phenyl-substituted heterocyclyl derivatives and their use as prostaglandin D2 receptor modulators” (Actelion Pharmaceuticals Ltd., priority 2010, dated 2013).
pIC50: −log10 of the molar value.

Molecular target: T1, hCRTH2 receptor (Homo sapiens, UniProt Q9Y5Y4)
T1 construct: expressed in transfected cells; host or cells: HEK293
T1 sequence (Q9Y5Y4 1-395): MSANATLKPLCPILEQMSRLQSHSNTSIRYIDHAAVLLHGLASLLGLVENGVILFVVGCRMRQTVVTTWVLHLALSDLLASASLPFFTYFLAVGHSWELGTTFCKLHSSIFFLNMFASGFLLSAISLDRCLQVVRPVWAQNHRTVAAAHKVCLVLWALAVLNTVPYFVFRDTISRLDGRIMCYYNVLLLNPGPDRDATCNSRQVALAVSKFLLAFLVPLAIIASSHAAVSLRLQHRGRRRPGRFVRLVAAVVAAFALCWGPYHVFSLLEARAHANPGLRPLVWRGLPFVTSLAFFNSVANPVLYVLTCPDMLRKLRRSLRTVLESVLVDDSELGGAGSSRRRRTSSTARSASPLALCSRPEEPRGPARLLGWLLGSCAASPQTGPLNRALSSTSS
Assay: Radioligand displacement assay (3H-PGD2) on hCRTH2 receptor membranes
Assay type: binding
Settings: antagonistic activity

[1] = 3H-PGD2 displacement on HEK293-hCRTH2 membrane fragments
[2] = 3H-PGD2 radioligand displacement, HEK293-hCRTH2 membranes

| Structure (SMILES) | pIC50 [1] | pIC50 [2] | also measured |
| --- | --- | --- | --- |
| O=C(O)COc1ccc(Cl)cc1C1c2ccccc2CCN1C(=O)OCc1ccccc1 (racemic) [Example 21, (±)-1-(2-Carboxymethoxy-5-chloro-phenyl)-3,4-dihydro-1H-isoquinoline-2-carboxylic acid benzyl ester] | 8.16 |  |  |
| O=C(O)COc1ccc(Cl)cc1C1c2ccccc2CCN1C(=O)CCCc1ccc(Cl)cc1 (racemic) [Example 93, (±)-(4-Chloro-2-{2-[4-(4-chloro-phenyl)-butyryl]-1,2,3,4-tetrahydro-isoquinolin-1-yl}-phenoxy)-acetic acid] | 7.89 |  |  |
| Cc1nn(CCC(=O)N2CCc3cc(F)ccc3[C@H]2c2cc(Cl)ccc2OCC(=O)O)c2cc(Cl)ccc12 [Example 394] |  | 6.73 |  |
| N#Cc1ccc(OCC(=O)O)c(C2c3cc(F)c(F)cc3CCN2C(=O)OCc2ccccc2)c1 (racemic) [Example 11, (±)-1-(2-Carboxymethoxy-5-cyano-phenyl)-6,7-difluoro-3,4-dihydro-1H-isoquinoline-2-carboxylic acid benzyl ester] | 7.88 |  |  |
| O=C(O)COc1ccc(Cl)cc1[C@@H]1c2ccccc2CCN1C(=O)OCc1ccccc1F [Example 357, (S)-1-(2-Carboxymethoxy-5-chloro-phenyl)-3,4-dihydro-1H-isoquinoline-2-carboxylic acid 2-fluoro-benzyl ester] |  | 8.91 |  |
| Cc1noc(C)c1COC(=O)N1CCc2ccccc2[C@H]1c1cc(Cl)ccc1OCC(=O)O [Example 281, (S)-1-(2-Carboxymethoxy-5-chloro-phenyl)-3,4-dihydro-1H-isoquinoline-2-carboxylic acid 3,5-dimethyl-isoxazol-4-ylmethyl ester] | 8.32 |  |  |
| Cc1ncc(COC(=O)N2CCc3ccccc3[C@H]2c2cc(Cl)ccc2OCC(=O)O)s1 [Example 277, (S)-1-(2-Carboxymethoxy-5-chloro-phenyl)-3,4-dihydro-1H-isoquinoline-2-carboxylic acid 2-methyl-thiazol-5-ylmethyl ester] | 9.11 |  |  |
| O=C(O)COc1ccc(Cl)cc1C1c2ccccc2CN1C(=O)CCn1ncc2ccccc21 (racemic) [Example 516] |  | 7.90 |  |
| COc1ccccc1COC(=O)N1CCc2ccccc2[C@H]1c1cc(Cl)ccc1OCC(=O)O [Example 356, (S)-1-(2-Carboxymethoxy-5-chloro-phenyl)-3,4-dihydro-1H-isoquinoline-2-carboxylic acid 2-methoxy-benzyl ester] |  | 8.45 |  |
| CC(C)(C)OC(=O)N1CCc2ccccc2[C@H]1c1cc(Cl)ccc1OCC(=O)O [Example 228] | 7.15 |  |  |
| CS(=O)(=O)Nc1cccc2c1CCN(C(=O)OCc1ccccc1)C2c1cc(F)ccc1OCC(=O)O (racemic) [Example 222, (±)-1-(2-Carboxymethoxy-5-fluoro-phenyl)-5-methanesulfonylamino-3,4-dihydro-1H-isoquinoline-2-carboxylic acid benzyl ester] | 6.85 |  |  |
| CC1(C)CC1C(=O)N1CCc2ccccc2C1c1cc(Cl)ccc1OCC(=O)O (racemic) [Example 466, (±)-{4-Chloro-2-[2-(2,2-dimethyl-cyclopropanecarbonyl)-1,2,3,4-tetrahydro-isoquinolin-1-yl]-phenoxy}-acetic acid] |  | 7.62 |  |
| Cn1nc(COC(=O)N2CCc3cc(F)ccc3[C@H]2c2cc(Cl)ccc2OCC(=O)O)c2ccccc21 [Example 346, (S)-1-(2-Carboxymethoxy-5-chloro-phenyl)-6-fluoro-3,4-dihydro-1H-isoquinoline-2-carboxylic acid 1-methyl-1H-indazol-3-ylmethyl ester] |  | 8.94 |  |
| O=C(O)COc1ccc(F)cc1C1c2ccccc2CCN1C(=O)Oc1ccccc1Cl (racemic) [Example 170] | 6.77 |  |  |
| O=C(O)COc1ccc(Cl)cc1[C@@H]1c2ccc(F)cc2CCN1C(=O)OCc1nc2ccccc2o1 [Example 345, (S)-1-(2-Carboxymethoxy-5-chloro-phenyl)-6-fluoro-3,4-dihydro-1H-isoquinoline-2-carboxylic acid benzooxazol-2-ylmethyl ester] |  | 7.91 |  |
| C[C@@H](Oc1ccc(Cl)cc1C1c2ccccc2CCN1C(=O)OCc1ccccc1)C(=O)O (stereo partly drawn) [Example 220, 1-[2-((R)-1-Carboxy-ethoxy)-5-chloro-phenyl]-3,4-dihydro-1H-isoquinoline-2-carboxylic acid benzyl ester] | 7.68 |  |  |
| O=C(O)COc1ccc(Cl)cc1C1c2ccc(F)cc2CCN1C(=O)[C@@H]1C[C@H]1c1ccccc1 (mixture of isomers) [Example 428] |  | 8.88 |  |
| O=C(O)COc1ccc(Cl)cc1C1c2ccccc2CCN1C(=O)CN1Cc2ccccc2C1 (racemic) [Example 444] |  | 6.18 |  |
| O=C(OCc1ccccc1)N1CCc2ccccc2C1c1cc(Cl)ccc1OCc1nnn[nH]1 (stereo not drawn) [Example 570, (γ)-1-[5-Chloro-2-(1H-tetrazol-5-ylmethoxy)-phenyl]-3,4-dihydro-1H-isoquinoline-2-carboxylic acid benzyl ester] |  |  | pIC50 (radioligand displacement (3H-PGD2), hCRTH2 receptor membranes): 6.45 |
| CC(C)c1ccc(OCC(=O)O)c(C2c3ccccc3CCN2C(=O)OCc2ccccc2)c1 (racemic) [Example 22, (±)-1-(2-Carboxymethoxy-5-isopropyl-phenyl)-3,4-dihydro-1H-isoquinoline-2-carboxylic acid benzyl ester] | 6.32 |  |  |

| Structure (SMILES) | pIC50 [1] | pIC50 [2] | also measured |
| --- | --- | --- | --- |
| Cc1cnc(COC(=O)N2CCc3c(ccc(F)c3F)[C@H]2c2cc(Cl)ccc2OCC(=O)O)s1 [Example 301, (S)-1-(2-Carboxymethoxy-5-chloro-phenyl)-5,6-difluoro-3,4-dihydro-1H-isoquinoline-2-carboxylic acid 5-methyl-thiazol-2-ylmethyl ester] |  | 8.34 |  |
| COc1ccc2c(c1)C(c1cc(F)ccc1OCC(=O)O)N(C(=O)OCc1ccccc1)CC2 (racemic) [Example 37, (±)-1-(2-Carboxymethoxy-5-fluoro-phenyl)-7-methoxy-3,4-dihydro-1H-isoquinoline-2-carboxylic acid benzyl ester] | 7.70 |  |  |
| O=C(O)COc1ccc(F)cc1C1c2cc(F)c(F)cc2CCN1C(=O)OCc1ccccc1 (racemic) [Example 9, (±)-1-(2-Carboxymethoxy-5-fluoro-phenyl)-6,7-difluoro-3,4-dihydro-1H-isoquinoline-2-carboxylic acid benzyl ester] | 7.45 |  |  |
| O=C(O)COc1ccc(Cl)cc1C1c2cccc(F)c2CCN1C(=O)OCc1ccccc1 (racemic) [Example 18, (±)-1-(2-Carboxymethoxy-5-chloro-phenyl)-5-fluoro-3,4-dihydro-1H-isoquinoline-2-carboxylic acid benzyl ester] | 8.27 |  |  |
| O=C(O)COc1ccc(Cl)cc1C1c2ccccc2CCN1C(=O)[C@@H]1C[C@H]1c1ccccc1C(F)(F)F (mixture of isomers) [Example 423] |  | 8.18 |  |
| COc1cccc(COCC(=O)N2CCc3ccccc3C2c2cc(F)ccc2OCC(=O)O)c1 (racemic) [Example 195] | 7.44 |  |  |
| O=C(O)COc1ccc(Cl)cc1C1c2ccccc2CCN1C(=O)CCn1ccc2cc(F)ccc21 (racemic) [Example 379] |  | 7.77 |  |
| O=C(O)COc1ccc(Cl)cc1C1c2ccccc2CCN1C(=O)NCc1ccccc1 (racemic) [Example 492] |  | 7.78 |  |
| O=C(O)COc1ccc(Cl)cc1C1c2ccccc2CCN1C(=O)COc1cccc2cccnc12 (racemic) [Example 411] |  | 7.59 |  |
| O=C(O)COc1ccc(Cl)cc1C1c2ccccc2CN1C(=O)CCc1cccnc1 (racemic) [Example 505] |  | 6.72 |  |
| Cc1cc(C)n(CCOC(=O)N2CCc3cc(F)ccc3[C@H]2c2cc(Cl)ccc2OCC(=O)O)n1 [Example 341, (S)-1-(2-Carboxymethoxy-5-chloro-phenyl)-6-fluoro-3,4-dihydro-1H-isoquinoline-2-carboxylic acid 2-(3,5-dimethyl-pyrazol-1-yl)-ethyl ester] |  | 7.95 |  |
| O=C(O)COc1ccc(F)cc1C1c2ccccc2CCN1C(=O)CNS(=O)(=O)c1cccc(F)c1 (racemic) [Example 207] | 6.46 |  |  |
| COc1cc(OC)c2ccn(CCC(=O)N3CCc4ccccc4C3c3cc(Cl)ccc3OCC(=O)O)c2n1 (racemic) [Example 376] |  | 7.49 |  |
| O=C(O)COc1ccc(Cl)cc1C1c2ccccc2CN1C(=O)NCc1cccc(F)c1 (racemic) [Example 553] |  | 7.76 |  |
| O=C(O)COc1ccc(Cl)cc1[C@@H]1c2ccccc2CCN1C(=O)OCc1noc2ccccc12 [Example 298, (S)-1-(2-Carboxymethoxy-5-chloro-phenyl)-3,4-dihydro-1H-isoquinoline-2-carboxylic acid benzo[d]isoxazol-3-ylmethyl ester] |  | 8.60 |  |
| CCn1nc(C)cc1CCOC(=O)N1CCc2ccccc2[C@H]1c1cc(Cl)ccc1OCC(=O)O [Example 289, (S)-1-(2-Carboxymethoxy-5-chloro-phenyl)-3,4-dihydro-1H-isoquinoline-2-carboxylic acid 2-(2-ethyl-5-methyl-2H-pyrazol-3-yl)-ethyl ester] |  | 8.53 |  |
| Cc1ncsc1CCOC(=O)N1CCc2ccccc2[C@H]1c1cc(Cl)ccc1OCC(=O)O [Example 274, (S)-1-(2-Carboxymethoxy-5-chloro-phenyl)-3,4-dihydro-1H-isoquinoline-2-carboxylic acid 2-(4-methyl-thiazol-5-yl)-ethyl ester] | 8.62 |  |  |
| O=C(O)COc1ccc(Cl)cc1C1c2ccccc2CCN1C(=O)[C@@H]1C[C@H]1c1ccc(F)cc1 (mixture of isomers) [Example 418] |  | 7.79 |  |
| O=C(O)COc1ccc(Cl)cc1C1c2ccccc2CCN1C(=O)OCC1CCCCC1 (racemic) [Example 262] | 8.03 |  |  |
